# Laboratory results as given in patent US9224959B2, “Method for producing a pi-electron conjugated compound” (Ricoh Company, Ltd., priority 2009, dated 2015).
# Columns and labels:
# [1] = Evaluation of solubility (saturated solution after reflux and cooling to room temperature); assay type: physicochemical; conditions: refluxed 10 min, cooled to room temperature, left 16 hours, 0.2 μm PTFE filtered
# Method: The mixture was further stirred for 1 hour and left to stand for 16 hours, and the supernatant was filtered using a 0.2 μm-PTFE filter, to thereby obtain a saturated solution. The saturated solution was dried under reduced pressure, and the solubility of the precursor in each solvent was calculated.
# [2] = carboxylic acid as eliminated component; cited from earlier work
SMILES,Solubility in THF [1],Solubility in Anisole [1],Solubility in Chloroform [1],Solubility in Toluene [1],Acidity [2]
CC(C)(C)C(=O)OC1CCC(OC(=O)C(C)(C)C)c2cc(-c3cc4sc(-c5ccc6c(c5)C(OC(=O)C(C)(C)C)CCC6OC(=O)C(C)(C)C)cc4s3)ccc21 (stereo not shown) [Compound 12],A (the solubility is 0.5% by mass or more),A (the solubility is 0.5% by mass or more),A (the solubility is 0.5% by mass or more),A (the solubility is 0.5% by mass or more),
c1ccc2cc(-c3ccc4c(c3)sc3c5ccc(-c6ccc7ccccc7c6)cc5sc43)ccc2c1 [Compound 19],D (the solubility is less than 0.005% by mass),D (the solubility is less than 0.005% by mass),D (the solubility is less than 0.005% by mass),D (the solubility is less than 0.005% by mass),
c1ccc2cc(-c3cc4sc(-c5ccc6ccccc6c5)cc4s3)ccc2c1 [Compound 17],D (the solubility is less than 0.005% by mass),D (the solubility is less than 0.005% by mass),D (the solubility is less than 0.005% by mass),D (the solubility is less than 0.005% by mass),
CC(C)(C)C(=O)O [pivalic acid],,,,,5.0 pKa
CCCCCC(=O)O [caproic acid],,,,,4.6 pKa
c1ccc2cc(-c3cc4cc5sc(-c6ccc7ccccc7c6)cc5cc4s3)ccc2c1 [Compound 18],D (the solubility is less than 0.005% by mass),D (the solubility is less than 0.005% by mass),D (the solubility is less than 0.005% by mass),D (the solubility is less than 0.005% by mass),
O=C(CC(F)(F)F)OC1CCC(OC(=O)CC(F)(F)F)c2cc(-c3ccc4c(c3)sc3c5ccc(-c6ccc7c(c6)C(OC(=O)CC(F)(F)F)CCC7OC(=O)CC(F)(F)F)cc5sc43)ccc21 (stereo not shown) [Compound 16],A (the solubility is 0.5% by mass or more),B (the solubility is 0.1% by mass or more to less than 0.5% by mass),A (the solubility is 0.5% by mass or more),B (the solubility is 0.1% by mass or more to less than 0.5% by mass),
O=C(CC(F)(F)F)OC1CCC(OC(=O)CC(F)(F)F)c2cc(-c3cc4sc(-c5ccc6c(c5)C(OC(=O)CC(F)(F)F)CCC6OC(=O)CC(F)(F)F)cc4s3)ccc21 (stereo not shown) [Compound 13],A (the solubility is 0.5% by mass or more),B (the solubility is 0.1% by mass or more to less than 0.5% by mass),A (the solubility is 0.5% by mass or more),A (the solubility is 0.5% by mass or more),
"O=C(O)CC(F)(F)F [3,3,3-trifluoropropionic acid]",,,,,3.0 pKa
O=C(CC(F)(F)F)OC1CCC(OC(=O)CC(F)(F)F)c2cc(-c3cc4cc5sc(-c6ccc7c(c6)C(OC(=O)CC(F)(F)F)CCC7OC(=O)CC(F)(F)F)cc5cc4s3)ccc21 (stereo not shown) [Compound 14],A (the solubility is 0.5% by mass or more),A (the solubility is 0.5% by mass or more),A (the solubility is 0.5% by mass or more),B (the solubility is 0.1% by mass or more to less than 0.5% by mass),
